Measured values from the NIST ThermoML archive (doi:10.1021/je0503554).
Several values for one entry are separate records, joined by “and”; a condition that tells them apart may be missing. Equal values may be shown once. Numbers after ± are expanded uncertainties.

Assay: activity coefficient (dimensionless); of the first substance listed, at infinite dilution; xn = mol fraction of the nth substance listed
Settings: Liquid, Chromatography, x1 = 0

C=CCCCCCCCCC [1-undecene] + CCCCCC[n+]1ccn(C)c1.O=S(=O)([N-]S(=O)(=O)C(F)(F)F)C(F)(F)F
activity coefficient (322.65 K): 21 ± 1.4
activity coefficient (333.15 K): 19.2 ± 1.3
activity coefficient (343.75 K): 17.4 ± 1.2
activity coefficient (359.4 K): 15.4 ± 1.1
activity coefficient (369.85 K): 14.3 ± 0.97
activity coefficient (375.05 K): 14.1 ± 0.96

CCCCCCO [hexan-1-ol] + CCCCCC[n+]1ccn(C)c1.O=S(=O)([N-]S(=O)(=O)C(F)(F)F)C(F)(F)F
activity coefficient (354.05 K): 2.18 ± 0.15
activity coefficient (364.55 K): 1.97 ± 0.13
activity coefficient (374.95 K): 1.82 ± 0.12
activity coefficient (385.45 K): 1.67 ± 0.11
activity coefficient (395.95 K): 1.56 ± 0.1

C=CCCCCC [1-heptene] + CCCCCC[n+]1ccn(C)c1.O=S(=O)([N-]S(=O)(=O)C(F)(F)F)C(F)(F)F
activity coefficient (301.95 K): 6.36 ± 0.43
activity coefficient (312.45 K): 6.18 ± 0.42
activity coefficient (322.95 K): 5.96 ± 0.41
activity coefficient (333.45 K): 5.69 ± 0.39
activity coefficient (343.95 K): 5.44 ± 0.37
activity coefficient (354.35 K): 5.26 ± 0.36

CCCCCCCCC [nonane] + CCCCCC[n+]1ccn(C)c1.O=S(=O)([N-]S(=O)(=O)C(F)(F)F)C(F)(F)F
activity coefficient (307.05 K): 21.4 ± 1.5
activity coefficient (312.35 K): 20.5 and 20.3
activity coefficient (322.85 K): 18.9 and 18.6

CCCCC=O [pentanal] + CCCCCC[n+]1ccn(C)c1.O=S(=O)([N-]S(=O)(=O)C(F)(F)F)C(F)(F)F
activity coefficient (301.75 K): 1.11 ± 0.07
activity coefficient (312.25 K): 1.1 ± 0.07
activity coefficient (322.85 K): 1.08 ± 0.068
activity coefficient (333.35 K): 1.06 ± 0.067
activity coefficient (343.55 K): 1.05 ± 0.066
activity coefficient (354.05 K): 1.03 ± 0.065
activity coefficient (364.45 K): 1.01 ± 0.063
activity coefficient (374.95 K): 0.99 ± 0.062

CCC(C)(C)O [2-methylbutan-2-ol] + CCCCCC[n+]1ccn(C)c1.O=S(=O)([N-]S(=O)(=O)C(F)(F)F)C(F)(F)F
activity coefficient (301.65 K): 1.7 ± 0.11
activity coefficient (312.25 K): 1.53 ± 0.1
activity coefficient (322.75 K): 1.4 ± 0.09
activity coefficient (333.25 K): 1.3 ± 0.08
activity coefficient (343.75 K): 1.22 ± 0.08
activity coefficient (354.05 K): 1.14 ± 0.07
activity coefficient (364.55 K): 1.06 ± 0.07

CCCCCCCC=O [octanal] + CCCCCC[n+]1ccn(C)c1.O=S(=O)([N-]S(=O)(=O)C(F)(F)F)C(F)(F)F
activity coefficient (354.05 K): 1.9 ± 0.13
activity coefficient (364.45 K): 1.92 ± 0.13
activity coefficient (374.95 K): 1.94 ± 0.13
activity coefficient (385.45 K): 1.96 ± 0.13
activity coefficient (395.95 K): 1.97 ± 0.13

C1CCCCC1 [cyclohexane] + CCCCCC[n+]1ccn(C)c1.O=S(=O)([N-]S(=O)(=O)C(F)(F)F)C(F)(F)F
activity coefficient (300.95 K): 5.65 ± 0.39
activity coefficient (312.25 K): 5.23 ± 0.36
activity coefficient (322.85 K): 4.9 ± 0.33
activity coefficient (333.25 K): 4.59 ± 0.31

CCc1ccccc1 [ethylbenzene] + CCCCCC[n+]1ccn(C)c1.O=S(=O)([N-]S(=O)(=O)C(F)(F)F)C(F)(F)F
activity coefficient (322.85 K): 1.55 ± 0.1
activity coefficient (333.35 K): 1.55 ± 0.1
activity coefficient (343.85 K): 1.54 ± 0.1
activity coefficient (354.25 K): 1.53 ± 0.1

C=CCCCCCC [oct-1-ene] + CCCCCC[n+]1ccn(C)c1.O=S(=O)([N-]S(=O)(=O)C(F)(F)F)C(F)(F)F
activity coefficient (301.95 K): 8.83 ± 0.6
activity coefficient (312.45 K): 8.43 ± 0.58
activity coefficient (322.95 K): 8.08 ± 0.55
activity coefficient (333.45 K): 7.66 ± 0.52
activity coefficient (343.95 K): 7.37 ± 0.5
activity coefficient (354.35 K): 7.16 ± 0.49

CCCCCC=O [hexanal] + CCCCCC[n+]1ccn(C)c1.O=S(=O)([N-]S(=O)(=O)C(F)(F)F)C(F)(F)F
activity coefficient (333.15 K): 1.2 ± 0.077
activity coefficient (343.55 K): 1.21 ± 0.078
activity coefficient (354.05 K): 1.23 ± 0.079
activity coefficient (364.45 K): 1.24 ± 0.08
activity coefficient (374.95 K): 1.26 ± 0.081

CC(C)CO [2-methyl-1-propanol] + CCCCCC[n+]1ccn(C)c1.O=S(=O)([N-]S(=O)(=O)C(F)(F)F)C(F)(F)F
activity coefficient (301.65 K): 2.46 ± 0.17
activity coefficient (312.15 K): 2.19 ± 0.15
activity coefficient (322.85 K): 1.9 ± 0.13
activity coefficient (333.35 K): 1.68 ± 0.11

OC1CCCCC1 [cyclohexanol] + CCCCCC[n+]1ccn(C)c1.O=S(=O)([N-]S(=O)(=O)C(F)(F)F)C(F)(F)F
activity coefficient (354.05 K): 1.87 ± 0.13
activity coefficient (364.55 K): 1.6 ± 0.11
activity coefficient (374.95 K): 1.43 ± 0.09
activity coefficient (385.45 K): 1.29 ± 0.08
activity coefficient (395.95 K): 1.2 ± 0.08

CCCCCc1ccccc1 [pentylbenzene] + CCCCCC[n+]1ccn(C)c1.O=S(=O)([N-]S(=O)(=O)C(F)(F)F)C(F)(F)F
activity coefficient (364.65 K): 3.38 ± 0.23
activity coefficient (375.15 K): 3.37 ± 0.23
activity coefficient (385.65 K): 3.37 ± 0.23

CCCCCCCCCCC [undecane] + CCCCCC[n+]1ccn(C)c1.O=S(=O)([N-]S(=O)(=O)C(F)(F)F)C(F)(F)F
activity coefficient (312.35 K): 37.3 ± 2.5
activity coefficient (322.85 K): 34.1 ± 2.3
activity coefficient (333.35 K): 30 ± 2
activity coefficient (343.75 K): 27.7 ± 1.9
activity coefficient (354.25 K): 26 ± 1.8

C=CCCCCCCCCCC [1-dodecene] + CCCCCC[n+]1ccn(C)c1.O=S(=O)([N-]S(=O)(=O)C(F)(F)F)C(F)(F)F
activity coefficient (333.15 K): 25.6 ± 1.8
activity coefficient (343.75 K): 23.1 and 22.7
activity coefficient (354.15 K): 21.1 and 20.5
activity coefficient (364.55 K): 19.3 ± 1.3
activity coefficient (364.65 K): 18.7 ± 1.3
activity coefficient (374.95 K): 16.9 ± 1.1

CCC(C)O (centres undefined) [butan-2-ol] + CCCCCC[n+]1ccn(C)c1.O=S(=O)([N-]S(=O)(=O)C(F)(F)F)C(F)(F)F
activity coefficient (301.65 K): 2.14 ± 0.15
activity coefficient (312.15 K): 1.9 ± 0.13
activity coefficient (322.85 K): 1.66 ± 0.11
activity coefficient (333.35 K): 1.47 ± 0.1

C1COCCO1 [1,4-dioxane] + CCCCCC[n+]1ccn(C)c1.O=S(=O)([N-]S(=O)(=O)C(F)(F)F)C(F)(F)F
activity coefficient (375.15 K): 0.04
activity coefficient (396.15 K): 0.047

C=CCCC [1-pentene] + CCCCCC[n+]1ccn(C)c1.O=S(=O)([N-]S(=O)(=O)C(F)(F)F)C(F)(F)F
activity coefficient (301.95 K): 3.63 ± 0.23
activity coefficient (312.45 K): 3.54 ± 0.23
activity coefficient (322.95 K): 3.43 ± 0.24
activity coefficient (333.45 K): 3.39 ± 0.25

CC(C)=O [acetone] + CCCCCC[n+]1ccn(C)c1.O=S(=O)([N-]S(=O)(=O)C(F)(F)F)C(F)(F)F
activity coefficient (301.75 K): 0.352 ± 0.032
activity coefficient (302.25 K): 0.352 ± 0.032
activity coefficient (312.25 K): 0.357 ± 0.033
activity coefficient (322.85 K): 0.362 ± 0.033
activity coefficient (333.35 K): 0.366 ± 0.033
activity coefficient (343.85 K): 0.371 ± 0.033
activity coefficient (354.25 K): 0.375 ± 0.033

CCCCCCC(=O)OC [methyl heptanoate] + CCCCCC[n+]1ccn(C)c1.O=S(=O)([N-]S(=O)(=O)C(F)(F)F)C(F)(F)F
activity coefficient (354.15 K): 1.6 ± 0.11
activity coefficient (364.65 K): 1.52 ± 0.1
activity coefficient (375.15 K): 1.44 ± 0.09
activity coefficient (385.65 K): 1.38 ± 0.09

CCCCO [butan-1-ol] + CCCCCC[n+]1ccn(C)c1.O=S(=O)([N-]S(=O)(=O)C(F)(F)F)C(F)(F)F
activity coefficient (322.65 K): 2.06 ± 0.14
activity coefficient (333.15 K): 1.83 ± 0.12
activity coefficient (343.65 K): 1.67 ± 0.11
activity coefficient (354.15 K): 1.53 ± 0.1

CC(C)(C)O [2-methylpropan-2-ol] + CCCCCC[n+]1ccn(C)c1.O=S(=O)([N-]S(=O)(=O)C(F)(F)F)C(F)(F)F
activity coefficient (301.65 K): 1.7 ± 0.11
activity coefficient (312.15 K): 1.51 ± 0.1
activity coefficient (322.85 K): 1.34 ± 0.09
activity coefficient (333.35 K): 1.21 ± 0.08

CCO [ethanol] + CCCCCC[n+]1ccn(C)c1.O=S(=O)([N-]S(=O)(=O)C(F)(F)F)C(F)(F)F
activity coefficient (301.95 K): 1.95 ± 0.13
activity coefficient (312.45 K): 1.71 ± 0.11
activity coefficient (323.05 K): 1.51 ± 0.1
activity coefficient (333.45 K): 1.35 ± 0.09
activity coefficient (343.95 K): 1.2 ± 0.08
activity coefficient (354.45 K): 1.08 ± 0.07

CCCCCCCO [heptan-1-ol] + CCCCCC[n+]1ccn(C)c1.O=S(=O)([N-]S(=O)(=O)C(F)(F)F)C(F)(F)F
activity coefficient (354.05 K): 4.61 ± 0.31
activity coefficient (364.63 K): 4.13 ± 0.28
activity coefficient (375.05 K): 3.73 ± 0.25
activity coefficient (385.6 K): 3.42 ± 0.23

CCCCC [pentane] + CCCCCC[n+]1ccn(C)c1.O=S(=O)([N-]S(=O)(=O)C(F)(F)F)C(F)(F)F
activity coefficient (301.95 K): 6.26 ± 0.43
activity coefficient (312.45 K): 5.44 ± 0.37
activity coefficient (323.05 K): 5.33 ± 0.36
activity coefficient (333.45 K): 4.72 ± 0.32
activity coefficient (343.95 K): 4.09 ± 0.28

CCC=O [propanal] + CCCCCC[n+]1ccn(C)c1.O=S(=O)([N-]S(=O)(=O)C(F)(F)F)C(F)(F)F
activity coefficient (301.75 K): 0.453 ± 0.036
activity coefficient (312.25 K): 0.45 ± 0.036
activity coefficient (322.85 K): 0.444 ± 0.036
activity coefficient (333.35 K): 0.439 ± 0.035

CCCCCC [hexane] + CCCCCC[n+]1ccn(C)c1.O=S(=O)([N-]S(=O)(=O)C(F)(F)F)C(F)(F)F
activity coefficient (301.85 K): 8.03 ± 0.55
activity coefficient (312.25 K): 7.65 ± 0.52
activity coefficient (322.85 K): 7.41 ± 0.51
activity coefficient (333.25 K): 6.94 ± 0.47
activity coefficient (343.75 K): 6.74 ± 0.46

CCCCCCC [heptane] + CCCCCC[n+]1ccn(C)c1.O=S(=O)([N-]S(=O)(=O)C(F)(F)F)C(F)(F)F
activity coefficient (300.95 K): 11.2 ± 0.76
activity coefficient (312.25 K): 10.4 ± 0.71
activity coefficient (322.85 K): 9.69 ± 0.66
activity coefficient (333.25 K): 9.09 ± 0.62
activity coefficient (343.75 K): 8.65 ± 0.59

CCCCCCCCCCCC [dodecane] + CCCCCC[n+]1ccn(C)c1.O=S(=O)([N-]S(=O)(=O)C(F)(F)F)C(F)(F)F
activity coefficient (333.35 K): 39.6 ± 2.7
activity coefficient (343.75 K): 36.4 ± 2.5
activity coefficient (354.25 K): 34.2 ± 2.3
activity coefficient (364.75 K): 30.3 ± 2.1
